{"source": "PubChem BioAssay AID1259407", "about": "(Chemical Carcinogenesis Research Information System (CCRIS), 2018)", "test_system": "CCRIS mutagenicity, Ames/micronucleus/aberration tests", "assay": "CCRIS mutagenicity studies", "key": {"[1]": {"details": "Test System: AMES SALMONELLA TYPHIMURIUM, Strain/Indicator: TA98, Metabolic Activation: NONE, Method: STANDARD PLATE"}, "[2]": {"details": "Test System: AMES SALMONELLA TYPHIMURIUM, Strain/Indicator: TA100, Metabolic Activation: NONE, Method: STANDARD PLATE"}, "[3]": {"details": "Test System: AMES SALMONELLA TYPHIMURIUM, Strain/Indicator: TA1538, Metabolic Activation: NONE, Method: STANDARD PLATE"}, "[4]": {"details": "Test System: AMES SALMONELLA TYPHIMURIUM, Strain/Indicator: TA98, Metabolic Activation: RAT, LIVER, S-9, AROCLOR 1254, Method: STANDARD PLATE"}}, "note": "Calls of active or inactive are those of the source. No rule for the calls is given here."}
{"smiles": "O=P(O)(O)Oc1c(Br)cc(Br)cc1-c1cc(Br)cc(Br)c1O", "values": [{"measurement": "mutagenic call", "setting": "[1]", "result": "inactive; negative"}, {"measurement": "mutagenic call", "setting": "Test System: AMES SALMONELLA TYPHIMURIUM, Strain/Indicator: TA98, Metabolic Activation: RAT, LIVER, S-9, KANECHLOR 400, Method: STANDARD PLATE", "result": "inactive; negative"}, {"measurement": "mutagenic call", "setting": "[2]", "result": "inactive; negative"}, {"measurement": "mutagenic call", "setting": "Test System: AMES SALMONELLA TYPHIMURIUM, Strain/Indicator: TA100, Metabolic Activation: RAT, LIVER, S-9, KANECHLOR 400, Method: STANDARD PLATE", "result": "inactive; negative"}, {"measurement": "mutagenic call", "setting": "Test System: AMES SALMONELLA TYPHIMURIUM, Strain/Indicator: TA1535, Metabolic Activation: NONE, Method: STANDARD PLATE", "result": "inactive; negative"}, {"measurement": "mutagenic call", "setting": "Test System: AMES SALMONELLA TYPHIMURIUM, Strain/Indicator: TA1535, Metabolic Activation: RAT, LIVER, S-9, KANECHLOR 400, Method: STANDARD PLATE", "result": "inactive; negative"}, {"measurement": "mutagenic call", "setting": "Test System: AMES SALMONELLA TYPHIMURIUM, Strain/Indicator: TA1537, Metabolic Activation: NONE, Method: STANDARD PLATE", "result": "inactive; negative"}, {"measurement": "mutagenic call", "setting": "Test System: AMES SALMONELLA TYPHIMURIUM, Strain/Indicator: TA1537, Metabolic Activation: RAT, LIVER, S-9, KANECHLOR 400, Method: STANDARD PLATE", "result": "inactive; negative"}, {"measurement": "mutagenic call", "setting": "[3]", "result": "inactive; negative"}, {"measurement": "mutagenic call", "setting": "Test System: AMES SALMONELLA TYPHIMURIUM, Strain/Indicator: TA1538, Metabolic Activation: RAT, LIVER, S-9, KANECHLOR 400, Method: STANDARD PLATE", "result": "inactive; negative"}]}
{"smiles": "C", "values": [{"measurement": "mutagenic call", "setting": "End Point: In vitro chromosomal aberrations, Test System: Chinese hamster V79 lung fibroblast cells, Metabolic Activation: Rat, Liver, S9, Aroclor 1254", "result": "inactive; negative. material tested was baytubes, multi-walled carbon-nanotubes."}, {"measurement": "mutagenic call", "setting": "Test System: Ames Salmonella typhimurium, Strain/Indicator: TA98, Metabolic Activation: None, Method: Preincubation", "result": "inactive; negative. material tested was baytubes, multi-walled carbon-nanotubes."}, {"measurement": "mutagenic call", "setting": "Test System: Ames Salmonella typhimurium, Strain/Indicator: TA98, Metabolic Activation: Rat, Liver, S9, Aroclor 1254, Method: Preincubation", "result": "inactive; negative. material tested was baytubes, multi-walled carbon-nanotubes."}, {"measurement": "mutagenic call", "setting": "Test System: Ames Salmonella typhimurium, Strain/Indicator: TA100, Metabolic Activation: None, Method: Preincubation", "result": "inactive; negative. material tested was baytubes, multi-walled carbon-nanotubes."}, {"measurement": "mutagenic call", "setting": "Test System: Ames Salmonella typhimurium, Strain/Indicator: TA100, Metabolic Activation: Rat, Liver, S9, Aroclor 1254, Method: Preincubation", "result": "inactive; negative. material tested was baytubes, multi-walled carbon-nanotubes."}, {"measurement": "mutagenic call", "setting": "Test System: Ames Salmonella typhimurium, Strain/Indicator: TA102, Metabolic Activation: None, Method: Preincubation", "result": "inactive; negative. material tested was baytubes, multi-walled carbon-nanotubes."}, {"measurement": "mutagenic call", "setting": "Test System: Ames Salmonella typhimurium, Strain/Indicator: TA102, Metabolic Activation: Rat, Liver, S9, Aroclor 1254, Method: Preincubation", "result": "inactive; negative. material tested was baytubes, multi-walled carbon-nanotubes."}, {"measurement": "mutagenic call", "setting": "Test System: Ames Salmonella typhimurium, Strain/Indicator: TA1535, Metabolic Activation: None, Method: Preincubation", "result": "inactive; negative. material tested was baytubes, multi-walled carbon-nanotubes."}, {"measurement": "mutagenic call", "setting": "Test System: Ames Salmonella typhimurium, Strain/Indicator: TA1535, Metabolic Activation: Rat, Liver, S9, Aroclor 1254, Method: Preincubation", "result": "inactive; negative. material tested was baytubes, multi-walled carbon-nanotubes."}, {"measurement": "mutagenic call", "setting": "Test System: Ames Salmonella typhimurium, Strain/Indicator: TA1537, Metabolic Activation: None, Method: Preincubation", "result": "inactive; negative. material tested was baytubes, multi-walled carbon-nanotubes."}, {"measurement": "mutagenic call", "setting": "Test System: Ames Salmonella typhimurium, Strain/Indicator: TA1537, Metabolic Activation: Rat, Liver, S9, Aroclor 1254, Method: Preincubation", "result": "inactive; negative. material tested was baytubes, multi-walled carbon-nanotubes."}]}
{"smiles": "COC(=O)C1=CCCN(N=O)C1", "values": [{"measurement": "mutagenic call", "setting": "[1]", "result": "active; positive"}, {"measurement": "mutagenic call", "setting": "Test System: AMES SALMONELLA TYPHIMURIUM, Strain/Indicator: TA98, Metabolic Activation: RAT, LIVER, S-9, Method: STANDARD PLATE", "result": "active; positive"}, {"measurement": "mutagenic call", "setting": "[2]", "result": "active; positive"}, {"measurement": "mutagenic call", "setting": "Test System: AMES SALMONELLA TYPHIMURIUM, Strain/Indicator: TA100, Metabolic Activation: RAT, LIVER, S-9, Method: STANDARD PLATE", "result": "active; positive"}]}
{"smiles": "CCCCOc1cc(N=Nc2ccccc2)ccc1N=Nc1c(S(=O)(=O)O)cc2ccc(N)cc2c1O", "values": [{"measurement": "mutagenic call", "setting": "[1]", "result": "inactive; negative"}, {"measurement": "mutagenic call", "setting": "[4]", "result": "active; positive"}, {"measurement": "mutagenic call", "setting": "[2]", "result": "inactive; negative"}, {"measurement": "mutagenic call", "setting": "Test System: AMES SALMONELLA TYPHIMURIUM, Strain/Indicator: TA100, Metabolic Activation: RAT, LIVER, S-9, AROCLOR 1254, Method: STANDARD PLATE", "result": "inactive; negative"}, {"measurement": "mutagenic call", "setting": "[3]", "result": "inactive; negative"}, {"measurement": "mutagenic call", "setting": "Test System: AMES SALMONELLA TYPHIMURIUM, Strain/Indicator: TA1538, Metabolic Activation: RAT, LIVER, S-9, AROCLOR 1254, Method: STANDARD PLATE", "result": "active; positive"}]}
{"smiles": "c1cc2ccc3cc4occc4c4ccc(c1)c2c34", "values": [{"measurement": "mutagenic call", "setting": "[1]", "result": "inactive; negative"}, {"measurement": "mutagenic call", "setting": "[4]", "result": "active; positive"}]}
{"smiles": "CC/C=C/C=C/C=C/C=C/C=C/OCC(O)c1ccccc1", "note": "(configuration not stated)", "values": [{"measurement": "mutagenic call", "setting": "Test System: AMES SALMONELLA TYPHIMURIUM, Strain/Indicator: TA100, Metabolic Activation: NONE, Method: PREINCUBATION", "result": "active; positive"}]}
{"smiles": "CCN(CC)c1ccc(N=Nc2ccccc2)cc1", "values": [{"measurement": "mutagenic call", "setting": "Test System: AMES SALMONELLA TYPHIMURIUM, Strain/Indicator: TA98, Metabolic Activation: RAT, LIVER, MICROSOMES, 4-DIETHYLAMINOAZOBENZENE, Method: PREINCUBATION", "result": "inactive; negative"}, {"measurement": "mutagenic call", "setting": "Test System: AMES SALMONELLA TYPHIMURIUM, Strain/Indicator: TA98, Metabolic Activation: RAT, LIVER, MICROSOMES, AROCLOR 1254, Method: PREINCUBATION", "result": "inactive; negative"}, {"measurement": "mutagenic call", "setting": "Test System: AMES SALMONELLA TYPHIMURIUM, Strain/Indicator: TA98, Metabolic Activation: RAT, LIVER, MICROSOMES, Method: PREINCUBATION", "result": "inactive; negative"}]}
